Values after ≈ are worked out from the molar mass of the structure shown.
Experiments:
[1] = Substrate activity at cytochrome p450 in phenobarbital-induced rat liver microsomes assessed as cytochrome p450-mediated-deethoxylation per mg of protein; format: ADME
[2] = Lipophilicity, log P of the compound by C18 reverse phase HPLC; format: physicochemical
[3] = Solubility of the compound in aqueous buffer at pH 6.5; format: physicochemical
[4] = Clearance in human liver microsomes assessed per mg protein; format: ADME, Microsome
[5] = molecular target: T1, Lysine decarboxylase (Hafnia alvei, UniProt P05033); test: Time dependent inhibition of Hafnia alvei lysine decarboxylase using L-lysine by Kitz-Wilson analysis
T1 sequence (P05033 whole entry): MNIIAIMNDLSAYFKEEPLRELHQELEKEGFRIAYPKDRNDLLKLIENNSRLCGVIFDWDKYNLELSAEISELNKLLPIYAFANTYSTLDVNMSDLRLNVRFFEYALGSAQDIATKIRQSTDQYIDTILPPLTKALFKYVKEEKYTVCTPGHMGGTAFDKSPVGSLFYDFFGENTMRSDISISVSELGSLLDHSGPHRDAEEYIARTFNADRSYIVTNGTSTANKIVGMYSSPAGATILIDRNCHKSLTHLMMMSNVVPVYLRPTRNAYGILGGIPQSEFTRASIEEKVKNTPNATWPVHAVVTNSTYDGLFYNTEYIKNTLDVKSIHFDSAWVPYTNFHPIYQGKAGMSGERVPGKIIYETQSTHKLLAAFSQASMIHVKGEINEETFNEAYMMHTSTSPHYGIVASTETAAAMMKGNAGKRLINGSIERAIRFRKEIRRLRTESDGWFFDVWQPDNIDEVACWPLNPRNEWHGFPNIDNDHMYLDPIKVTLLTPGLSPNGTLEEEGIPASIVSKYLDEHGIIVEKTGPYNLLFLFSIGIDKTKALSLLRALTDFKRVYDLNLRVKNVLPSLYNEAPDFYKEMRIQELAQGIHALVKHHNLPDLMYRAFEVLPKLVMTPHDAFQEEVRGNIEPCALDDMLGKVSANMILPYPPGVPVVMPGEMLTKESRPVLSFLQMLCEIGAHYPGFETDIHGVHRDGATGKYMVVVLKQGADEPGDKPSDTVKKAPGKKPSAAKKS

[6] = Apparent half life in rat blood; format: ADME, tissue-based
[7] = Apparent half life in rat brain; format: ADME, tissue-based
[8] = Prodrug conversion in rat brain assessed as total fraction of didanosine formation by HPLC analysis; format: ADME, tissue-based; conditions: in vivo
[9] = Prodrug conversion in rat blood assessed as rate of didanosine formation by HPLC analysis; format: ADME, tissue-based
[10] = Prodrug conversion in rat blood assessed as total fraction of didanosine formation by HPLC analysis; format: ADME, tissue-based
[11] = molecular target: T2, Adenosine deaminase (Rattus norvegicus, UniProt Q920P6); test: Prodrug conversion in rat brain assessed as rate of adenosine deaminase-mediated didanosine formation by HPLC analysis; format: ADME, tissue-based; conditions: in vivo
T2 sequence (Q920P6 whole entry): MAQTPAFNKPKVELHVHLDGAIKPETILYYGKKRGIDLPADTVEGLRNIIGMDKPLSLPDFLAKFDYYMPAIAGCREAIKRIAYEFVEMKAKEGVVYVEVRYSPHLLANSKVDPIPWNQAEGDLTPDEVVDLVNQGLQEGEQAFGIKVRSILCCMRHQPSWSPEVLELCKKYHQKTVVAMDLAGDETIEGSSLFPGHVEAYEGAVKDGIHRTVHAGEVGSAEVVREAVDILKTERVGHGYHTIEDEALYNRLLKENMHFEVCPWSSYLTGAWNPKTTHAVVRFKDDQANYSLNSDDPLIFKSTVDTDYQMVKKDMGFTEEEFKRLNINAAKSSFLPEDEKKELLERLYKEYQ

[12] = Prodrug conversion in rat brain assessed as rate of didanosine formation by HPLC analysis; format: ADME, tissue-based; conditions: in vivo
[13] = molecular target: T2, Adenosine deaminase; test: Prodrug conversion in rat blood assessed as rate of adenosine deaminase-mediated didanosine formation by HPLC analysis; format: ADME, tissue-based
[14] = molecular target: T3, Microsomal glutathione S-transferase 1 (Rattus norvegicus, UniProt P08011); test: Substrate activity at MGST1 in rat liver microsomes assessed as reactivity rate at 50 uM incubated for 1 to 40 mins in presence of GSH by liquid chromatography/mass spectrometry
T3 sequence (P08011 whole entry): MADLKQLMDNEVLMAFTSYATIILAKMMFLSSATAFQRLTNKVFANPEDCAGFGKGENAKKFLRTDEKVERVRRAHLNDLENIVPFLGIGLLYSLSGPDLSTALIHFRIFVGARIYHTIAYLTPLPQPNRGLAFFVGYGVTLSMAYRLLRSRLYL

[15] = molecular target: Alanine racemase, biosynthetic (Escherichia coli K-12, UniProt P0A6B4); test: Substrate activity at Escherichia coli B alanine racemase assessed as partition ratio by measuring ratio of turnover rate to inactivation rate
[16] = Substrate activity at GSTZ (unknown origin) assessed as rate of drug conversion to S-(carboxymethyl)-glutathione per mg of protein; format: ADME; conditions: human
[17] = Substrate activity at recombinant human GSTZ1C expressed in Escherichia coli M15 assessed as rate of catalysis per mg of protein; format: ADME
[18] = molecular target: T4, Maleylacetoacetate isomerase (Rattus norvegicus, UniProt P57113); test: Substrate activity at GSTZ1 in rat liver cytosol assessed as defluorination activity; format: ADME, subcellular
T4 sequence (P57113 whole entry): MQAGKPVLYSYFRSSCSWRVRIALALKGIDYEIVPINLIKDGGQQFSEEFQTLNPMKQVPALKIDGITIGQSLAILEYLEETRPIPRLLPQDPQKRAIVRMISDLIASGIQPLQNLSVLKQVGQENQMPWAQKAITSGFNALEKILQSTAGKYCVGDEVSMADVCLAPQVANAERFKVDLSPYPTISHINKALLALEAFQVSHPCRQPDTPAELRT

[19] = Toxicity in dog; set-up: species or system Canis lupus familiaris; conditions: in vivo
[20] = molecular target: T5, MGST1 (microsomal glutathione S-transferase 1) (Rattus norvegicus, UniProt P08011); test: Substrate activity at MGST1 in rat liver microsomes assessed as substrate depletion at 50 uM incubated for 30 mins in presence of GSH by liquid chromatography/mass spectrometry; format: ADME; conditions: read-out: Activity
T5 sequence (P08011 whole entry): T3 sequence (P08011 whole entry)

[21] = Drug metabolism in Sprague-Dawley rat heart assessed as fluoro-acetic acid metabolite level at 100 mg/kg, po measured after 2 to 8 hrs; format: ADME, organism-based; conditions: in vivo
[22] = Drug metabolism in Sprague-Dawley rat kidney assessed as fluoro-acetic acid metabolite level at 100 mg/kg, po measured after 2 to 8 hrs; format: ADME, organism-based; conditions: in vivo
[23] = Drug metabolism in Sprague-Dawley rat liver assessed as fluoro-acetic acid metabolite level at 100 mg/kg, po measured after 2 to 8 hrs; format: ADME, organism-based; conditions: in vivo
[24] = tested on: Homo sapiens; test: Induction of fluoride toxicity in human assessed as fluoride level in plasma at 200 mg, po BID administered for at least 6 months (reference value: 2.54 uM); format: organism-based; conditions: in vivo
[25] = Lipophilicity, log P of the compound; conditions: octanol/water
[26] = Aqueous solubility of the compound in pH 6.8 buffer
[27] = Intrinsic clearance in human liver microsome; format: ADME; conditions: liver microsomes, read-out: CLH
[28] = Protein binding in human plasma
[29] = Acute toxicity in rat measured after 4 hrs; conditions: in vivo
[30] = Drug elimination in human; format: ADME; conditions: read-out: Drug excretion

Alanine racemase, biosynthetic, sequence (P0A6B4 whole entry): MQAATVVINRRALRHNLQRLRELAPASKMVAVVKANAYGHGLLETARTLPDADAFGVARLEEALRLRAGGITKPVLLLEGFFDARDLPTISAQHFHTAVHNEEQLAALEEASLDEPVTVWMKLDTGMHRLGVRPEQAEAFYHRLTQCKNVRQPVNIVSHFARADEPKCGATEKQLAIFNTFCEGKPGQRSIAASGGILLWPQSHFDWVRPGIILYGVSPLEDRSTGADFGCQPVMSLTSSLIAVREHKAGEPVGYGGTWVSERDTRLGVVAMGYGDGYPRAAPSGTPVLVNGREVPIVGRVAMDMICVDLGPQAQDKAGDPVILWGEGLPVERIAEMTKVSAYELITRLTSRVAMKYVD

CCOc1ccc(NC(C)=O)cc1 [PHENACETIN]
Activity [1]: 3.48 nmol/min

CCOc1ccccc1 [PHENETOLE]
logP [2]: 2.96

FCC(F)Cc1c[nH]c2ccccc12 (stereo not given)
solubility [3]: > 1720 µM | CLH [4]: 212 min⁻¹ µL⁻¹

C=C(F)[C@@](N)(CCCCN)C(=O)O
Ki [5]: 470 µM

OC[C@@H]1CC[C@H](n2cnc3c(I)ncnc32)O1
half-life [6]: 28.2 h | half-life [7]: 2.97 h

CCOc1ccc2ccc(=O)oc2c1 [ETHOXYCOUMARIN]
Activity [1]: 1.93 nmol/min

OC[C@@H]1CC[C@H](n2cnc3c(F)ncnc32)O1
Fm [8]: 1 | half-life [6]: 0.0583 h | K [9]: 0.13 min⁻¹ | half-life [7]: 0.00767 h | Fm [10]: 0.54 | K [11]: 1.51 min⁻¹ | K [12]: 0 min⁻¹ | K [13]: 0.15 min⁻¹

Clc1ccccn1 [2-CHLOROPYRIDINE]
Activity [14]: < 2 nmol/min/mg

N[C@@H](CF)C(=O)O
Ratio [15]: 790

O=C(O)CF [FLUOROACETATE]
K [16]: 172 nmol/min | K [17]: 210 nmol/min | Activity [18]: 3% | LD [19]: 0.05 mg/kg

O=[N+]([O-])c1cccnc1Cl
Activity [14]: 236 nmol/min/mg | metabolised at 0.5 h, 50 µM [20]: 100%

C[C@H](NC(=O)[C@H](Cc1ccccc1)NC(=O)OCc1ccccc1)C(=O)CF
Drug metabolism [21]: 0.2 to 0.9 µg/g | Drug metabolism [22]: 0.2 to 0.9 µg/g | Drug metabolism [23]: 0.2 to 0.9 µg/g

C[C@@H](c1ncncc1F)[C@](O)(Cn1cncn1)c1ccc(F)cc1F [VORICONAZOLE]
Activity [24]: 14.32 µM

C=C(F)[C@](N)(CCCCN)C(=O)O
Ki [5]: 630 µM

Nc1nc2ccc(SC(F)(F)F)cc2s1
logP [25]: 3.6 | solubility ([26]; pH 6.8 buffer): 124 µM (≈ 31 µg/mL) | microsomal CLint [27]: 40.9 µL/min/mg | fraction unbound [28]: 0.24

Cc1cccnc1Cl
metabolised at 0.5 h, 50 µM [20]: 14%

FC(F)=C(F)C(F)(F)F
Activity [29]: 3000 ppm

O=[N+]([O-])c1cn2c(n1)OC[C@@H](OCc1ccc(OC(F)(F)F)cc1)C2 [PRETOMANID]
logP [25]: 2.2 | solubility ([26]; buffer): 8 µM (≈ 2.87 µg/mL) | microsomal CLint [27]: < 25 µL/min/mg | PPB [28]: 38%

OC[C@@H]1CC[C@H](n2cnc3c(Cl)ncnc32)O1
Fm [8]: 1 | half-life [6]: 4.5 h | K [9]: 7.4 ×10⁻³ /min | half-life [7]: 0.317 h | Fm [10]: 0.28 | K [11]: 0.032 min⁻¹ | K [12]: 0 min⁻¹ | K [13]: 3 ×10⁻³ /min

OC[C@@H]1CC[C@H](n2cnc3c(Br)ncnc32)O1
half-life [6]: 4.67 h | half-life [7]: 0.333 h

FC(F)(F)C(Cl)Br (stereo not given) [HALOTHANE]
dose excreted [30]: 80%

— ChEMBL document CHEMBL4613261, “Metabolic and Pharmaceutical Aspects of Fluorinated Compounds” (J Med Chem, 2020)
